Assays:
TNF-α [1] = experiment: TNF-α activity assay (ELISA) in NIH/3T3 cells; format: cell-based; settings: NIH/3T3 cell; read-out: inhibition of TNF-α production IC50
Protocol: (§1) FIG. 4. Inhibition of TNF-α production in THP-1 and NIH/3T3 cells.
(§2) TNF-α activity assays. The protein expression levels of TNF-α were measured by using an enzyme-linked immunosorbent assay (ELISA) kit according to the manufacturer's instructions (Diaclone). Absorbance was read at 450 nm on a spectrophotometric ELISA plate reader (Anthos 2020, Version 2.0.5, Biochrom Ltd., UK). The percentage of TNF-α inhibition was calculated from the ratio between the observed TNF-α amount secreted by treated cells (nM) and the baseline secretion of TNF-α (nM). Dexamethasone (Sigma-Aldrich; 50-02-2), was used as positive control (0.01 μM). Results were normalized to the solvent control DMSO (0.1%).

NF-ηB [2] = experiment: NF-ηB activity assay in THP-1 cells; format: cell-based; settings: Homo sapiens; THP-1 cell; read-out: inhibition of NF-ηB production IC50
Protocol: (§3) FIG. 5. Inhibition of NF-ηB production in THP-1 and NIH/3T3 cells.
(§4) NF-ηB activity assays. The NIH/3T3-KBF-Luc cells has been stably transfected with the plasmid KBF-Luc plasmid, which contains three copies of NF-ηB binding site (from major histocompatibility complex promoter), fused to a minimal simian virus 40 promoter driving the luciferase gene. Cells (1×10^4 for NIH/3T3-KBF-Luc) are seeded the day before the assay on 96-well plate. Then the cells are treated with the test substances for 15 min and then stimulated with 30 ng/mL TNF-α. After 6 h, the cells are washed twice with PBS and lysed in 50 μL lysis buffer containing 25 mM Tris-phosphate (pH 7.8), 8 mM MgCl2, 1 mM DTT, 1% Triton X-100, and 7% glycerol during 15 min at RT in a horizontal shaker. Luciferase activity is measured using a GloMax 96 microplate luminometer (Promega) following the instructions of the luciferase assay kit (Promega, Madison, WI, USA). The RLU is calculated and the results are expressed as percentage of inhibition of NF-ηB activity induced by TNF-α (100% activation). The experiments for each concentration of the test items will be done in triplicate wells.

tyrosinase = biological target: T1, tyrosinase (Mus musculus, UniProt P11344); experiment: Tyrosinase activity assay in B16-F10 melanoma cells; format: cell-based; settings: 72 h treatment, read-out: inhibition of melanin synthesis (tyrosinase activity assay) IC50
T1 construct: To measure the tyrosinase activity of the cells, the B16-F10 cells treated for 3 days; endogenous in cells; host or cells: B16-F10 melanoma cells
T1 sequence (P11344 19-533): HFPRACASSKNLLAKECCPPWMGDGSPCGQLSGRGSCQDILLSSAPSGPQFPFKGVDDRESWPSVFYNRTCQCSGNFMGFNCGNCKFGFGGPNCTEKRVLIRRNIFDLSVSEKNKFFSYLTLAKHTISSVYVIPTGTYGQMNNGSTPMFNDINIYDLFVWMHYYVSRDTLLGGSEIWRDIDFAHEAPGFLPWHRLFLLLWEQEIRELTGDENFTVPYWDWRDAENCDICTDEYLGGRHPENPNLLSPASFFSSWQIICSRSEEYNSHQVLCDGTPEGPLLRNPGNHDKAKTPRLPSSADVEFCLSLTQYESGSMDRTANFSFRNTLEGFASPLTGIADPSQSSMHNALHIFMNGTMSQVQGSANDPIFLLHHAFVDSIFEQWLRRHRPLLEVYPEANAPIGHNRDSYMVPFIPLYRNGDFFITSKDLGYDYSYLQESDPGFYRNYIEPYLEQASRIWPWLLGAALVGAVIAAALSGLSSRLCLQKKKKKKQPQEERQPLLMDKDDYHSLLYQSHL
Protocol: FIG. 8. Effect of DOXA-1 and DOXA-2 on tyrosinase activity in B16-F10 melanoma cells. Tyrosinase activity assessment was performed as described in Methods. Briefly, cells were treated with the doses indicated of test substances or Kojic Acid as a positive control for 72 h. To determine the tyrosinase activity cells were lysed and the protein extracts were incubated with L-DOPA (a precursor of melanin) at 37° C. during 2 h and the activity was measured at 485 nm. Results are represented as percentage relative to untreated cells (control).
Tyrosinase activity assay. To measure the tyrosinase activity of the cells, the B16-F10 cells treated for 3 days with several doses of the compound is lysed by incubation at 4° C. for 30 min in lysis buffer (20 mM sodium phosphate, pH 6.8, 1% Triton X-100, 1 mM PMSF, 1 mM EDTA) containing protease inhibitors cocktail. The lysates are centrifuged at 15,000× g for 10 min to obtain the supernatant as the source of tyrosinase. The reaction mixture contained 20 mM phosphate buffer, pH 6.8, 1.25 mM L-DOPA (Sigma-Aldrich). After incubation at 37° C. for 2 h, dopachrome formation is monitored by measuring absorbance at a wavelength of 475 nm in a microplatereader (TECAN). Kojic acid 2 mM is used as a positive control.

STAT3 = STAT3 activity assay (HeLa-STAT3-Luc luciferase reporter, IFNγ-induced); format: cell-based; settings: HeLa-STAT3-Luc cells, IFNγ 25 U/mL, 6 h; read-out: inhibition of IFNγ-induced STAT3 activation IC50
Protocol: FIG. 6. DOXA-1 and DOXA-2 inhibits IFNγ-induced STAT3 activation. HeLa-STAT3-Luc cells (15×10^3 cells/mL) were preincubated with increasing concentrations of the compound and treated with IFNγ (25 U/mL) for 6 h. Luciferase activity was measured in the cell lysates with the luciferase assay kit (Promega, USA) and using a GloMax 96 microplate luminometer
STAT3 activity assay. The HeLa-STAT3-luc cells have been stably transfected with the plasmid 4×M67 pTATA TK-Luc. Cells (15×10^3 cells/mL) are seeded 96-well plate the day before the assay. Then the cells are treated with the compound for 15 min and then stimulated with IFN-γ 25 IU/mL. After 6 h, the cells are washed twice with PBS and lysed in 50 μL lysis buffer containing 25 mM Tris-phosphate (pH 7.8), 8 mM MgCl2, 1 mM DTT, 1% Triton X-100, and 7% glycerol during 15 min at RT in a horizontal shaker. Luciferase activity was measured using GloMax 96 microplate luminometer (Promega) following the instructions of the luciferase assay kit (Promega, Madison, WI, USA). The RLU is calculated and the results are expressed as percentage of inhibition of STAT3 activity induced by IFN-γ (100% activation). The experiments for each concentration of the test items will be done in triplicate wells.

NIH/3T3 cells = experiment: Cellular antioxidant activity assay (TBHP-induced ROS, DCFH-DA) in NIH/3T3 cells; format: cell-based; settings: Mus musculus, NIH3T3, NIH/3T3 cell, read-out: antioxidant activity IC50 (TBHP-induced intracellular ROS)
Protocol: (§5) FIG. 3. Inhibition of TBHP-induced ROS production in THP-1 and NIH-3T3 cells. ROS production was evaluated by fluorescent probe DCFH-DA assay.
(§6) Cellular antioxidant activity assays. The intracellular accumulation of ROS is detected by fluorimetry using […] (DCFH-DA). The THP-1 cell (1×10^5 cells/well) are cultured in a 96-well black plate in DMEM supplemented with 10% FBS; culture medium is renewed when the cells reached 80% confluence. For inhibition, the cells are pre-incubated with the test substances for 30 min and treated with 0.4 mM Terc-butyl-hydroperoxide (TBHP). After 3 h the cells are incubated with 10 μM DCFH-DA in the culture medium at 37° C. for 30 min.
(§7) The acetate groups on DCFH-DA are removed by an intracellular esterase, trapping the probe inside the THP-1 cell. Then, the cells are washed with PBS at 37° C. and the production of ROS measured by changes in fluorescence due to the intracellular accumulation of DCF caused by the oxidation of DCFH. Intracellular ROS, as indicated by DCF fluorescence is detected using the Incucyte FLR software; the data are analyzed by the total green object integrated intensity (GCU×μm^2×well) of the imaging system IncuCyte HD (Essen BioScience).
(§8) In both cases the intracellular levels of ROS induced by TBHP are reduced (FIG. 3).

TNF-α [3] = experiment: TNF-α activity assay (ELISA) in THP-1 cells; format: cell-based; settings: THP-1 cell; read-out: inhibition of TNF-α production IC50
Protocol: as §1, §2

THP-1 cells [4] = experiment: Cytotoxic activity assay in THP-1 cells; format: cell-based; settings: 48 h, at the tested concentrations
Protocol: FIG. 1. Cytotoxic activities of the compound in THP-1 cells. The cells were treated with the test substance at the indicated concentrations for 48 h.
Cytotoxic activity assays. THP-1 cell was seeded in 96-well plates at a density of 5×10^4 cells/well and NIH/3T3 cells were seeded in 96-well plates at a density of 5×10^3 cells/well both incubated overnight at 37° C. in a humidified atmosphere of 5% CO2. Subsequently, cells were treated with test compounds at the indicated concentrations and DMSO as control for […]. The test compounds were dissolved in DMSO (stock solution) and diluted with medium to a final DMSO concentration of 0.2%. MTT solution (50 μL, 7 mg/mL in PBS) was added to each well and plates were incubated for an additional 2 h. Next, the medium was removed and 100 μL of DMSO was added to each well to dissolve the formazan crystals that formed. The absorbance was measured at 590 nm using a spectrophotometric ELISA plate reader (SpectraMax® i3, Molecular Devices, CA, USA). Samples were considered nontoxic for the THP-1 and NIH/3T3 cell line when cell viability was ≥90%.
To analyse the cytotoxic activities of the test compound, THP-1 cells were incubated with DOXA-1 and DOXA-2 for 48 h and cytotoxicity was measured by fluorescence microscopy using an Incuyte microscope.

HIF-1α = HIF-1α activity assay (NIH/3T3-EPO-Luc luciferase reporter, DFX-induced); format: cell-based; settings: 6 h, read-out: inhibition of DFX-induced activation of EPO-Luc (HIF-1α stabilization) IC50
Protocol: FIG. 7. Inhibitions the HIF-1α pathway. NIH/3T3-EPO-Luc cells (10×10^4 cells/mL) were preincubated with increasing concentrations of the compound or the hypoximimetic (Desferrioxamine) DFX for 6 h. Luciferase activity was measured in the cell lysates and results are represented as the percentage of inhibition considering 100% the value of DFX-induced HIF-1α pathway activation.
HIF-1α activity assay. The NIH/3T3-EPO-luc cells have been stably transfected with the plasmid Epo-Luc plasmid. The EPO-Hypoxia Response Element (HRE)-luciferase reporter plasmid contains three copies of the HRE consensus sequence from the promoter of the erythropoietin gene in the pGL3 vector. Cells (1×10^4 for NIH/3T3-EPO-luc) are seeded the day before the assay. The next day, the cells are stimulated either with the compound or Desferrioxamine (DFX) 150 μM as a positive control. After 6 hours of stimulation the cells are lysed in 25 mM Tris-phosphate pH 7.8, 8 mM MgCl2, 1 mM DTT, 1% Triton X-100, and 7% glycerol during 15 min at RT in a horizontal shaker. Luciferase activity is measured using a GloMax 96 microplate luminometer (Promega) following the instructions of the luciferase assay kit (Promega, Madison, WI, USA). The RLU is calculated and the results are expressed as percentage of inhibition induction/inhibition of EPO-luc activity. […]

NF-ηB [5] = experiment: NF-ηB activity assay (KBF-Luc luciferase reporter) in NIH/3T3 cells; format: cell-based; settings: Mus musculus, NIH3T3; NIH/3T3 cell; read-out: inhibition of NF-ηB production IC50
Protocol: as §3, §4

THP-1 cells [6] = experiment: Cellular antioxidant activity assay (TBHP-induced ROS, DCFH-DA) in THP-1 cells; format: cell-based; settings: Homo sapiens, THP-1 cell, 0.4 mM TBHP, read-out: antioxidant activity IC50 (TBHP-induced intracellular ROS)
Protocol: as §5, §6, §7, §8

[7] = Total antioxidant activity assay (DPPH free radical, cell-free); format: biochemical; settings: Trolox 200 μM as positive control
Protocol: FIG. 2. Antioxidant activity of compound. The percentage of antioxidant activity of each extract was assessed by DPPH free radical assay and compared to the standard Trolox (92.08% of antioxidant activity).
Total antioxidant activity assay. […] DPPH (1,1-Diphenyl-2-picrylhydrazine) is a purple coloured stable free radical that is reduced to the yellow-coloured diphenylpicrylhydrazine. In a volume of 1 mL of methanol the test samples are mixed with DPPH 0.125 mM. Trolox (200 μM) is included as a positive control. After 30 min of incubation at room temperature in the dark the absorbance measurements are read at 517 nm using Thermo Scientific Genesys 10 uv scanning spectrophotometer. Lower absorbance of the reaction mixtures indicated higher free radical-scavenging activity. DPPH radical-scavenging activity is calculated according to the following formula: % Antioxidant activity=[(AC−AS)/AC]×100
Where Ac (control) is the absorbance of the control reaction (DPPH) and As (sample) is the absorbance of DPPH and sample.

Compound	IC50 (TNF-α [1])	IC50 (NF-ηB [2])	IC50 (tyrosinase)	IC50 (STAT3)	IC50 (NIH/3T3 cells)	IC50 (TNF-α [3])	cytotoxicity against THP-1 cell (THP-1 cells [4])	IC50 (HIF-1α)	IC50 (NF-ηB [5])	IC50 (THP-1 cells [6])	percentage of antioxidant activity (DPPH), standard [7]
CCCCCC1=NN(C(=O)CCOC(=O)CCC(=O)O)OC(CCCCC)C1 (stereo not drawn) [DOXA-1, Doxadiazine-1]	17.4 nM	63.6 nM	18 nM	3.09 nM	3330 nM	32.5 nM	no cytotoxicity	12.4 nM	67.7 nM	8.15 nM	–
CCCCCC1=NN(C(=O)CCOC(C)=O)OC(CCCCC)C1 (stereo not drawn) [DOXA-2, Doxadiazine-2]	1.58 nM	5.18 nM	8.64 nM	0.14 nM	2.23 nM	3.47 nM	no cytotoxicity	5.07 nM	2.41 nM	3.44 nM	–
Cc1c(C)c2c(c(C)c1O)CCC(C)(C(=O)O)O2 (stereo not drawn) [Trolox, reference compound]	–	–	–	–	–	–	–	–	–	–	92.08%

Reference: patent publication US12325692B2, “Uses of doxadiazines compounds” (HORITZONTS TECNOLOGICS HUNGARY KORLÁTOLT FELELOSSÉGU …, priority 2019, dated 2025)
